# Experimental data reported in patent US8163929B2, “Dihydropyridone amides as P2X7 modulators” (Roche Palo Alto LLC, priority 2008, dated 2012).
# Biological target: T1, P2X7 (UniProt Q99572)
# T1 sequence (Q99572 1-595): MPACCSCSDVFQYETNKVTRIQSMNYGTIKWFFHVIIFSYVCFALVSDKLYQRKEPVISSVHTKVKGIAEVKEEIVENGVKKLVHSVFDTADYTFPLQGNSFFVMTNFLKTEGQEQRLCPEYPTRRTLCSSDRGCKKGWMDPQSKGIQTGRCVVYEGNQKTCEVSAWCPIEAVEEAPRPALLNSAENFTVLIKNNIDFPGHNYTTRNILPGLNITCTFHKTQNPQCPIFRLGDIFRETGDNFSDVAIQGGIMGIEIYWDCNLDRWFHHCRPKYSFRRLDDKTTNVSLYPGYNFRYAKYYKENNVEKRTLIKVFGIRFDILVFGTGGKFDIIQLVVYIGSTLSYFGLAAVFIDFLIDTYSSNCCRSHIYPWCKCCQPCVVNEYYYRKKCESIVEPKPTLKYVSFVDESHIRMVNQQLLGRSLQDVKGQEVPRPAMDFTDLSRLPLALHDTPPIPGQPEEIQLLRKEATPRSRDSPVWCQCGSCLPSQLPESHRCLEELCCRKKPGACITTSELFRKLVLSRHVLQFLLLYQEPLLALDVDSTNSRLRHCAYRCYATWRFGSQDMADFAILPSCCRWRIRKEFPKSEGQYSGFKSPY
# Assay: P2X7 activity of Table 1
# Format: cell-based
# Conditions: pIC50 values for P2X7
# Method: Stock solutions of compounds were prepared from powders as a 10 mM DMSO stock solution. These solutions were stored at RT during the two week period of these experiments to prevent freeze-thaw of the DMSO stocks. The DMSO stocks were added to the appropriate assay buffer at a concentration of 10 μM, and then diluted serially to the final concentrations that were tested. […] The aqueous solutions of compounds as well as ATP (Sigma A7699) and BzATP (Sigma B6396) were prepared fresh for each day of experiment.
# 1321N1 cells stably expressing the full length human P2X7 gene (1321N1-hP2X7) and HEK293 cells stably expressing the full length rat P2X7 gene (HEK293-rP2X7) were obtained from the Roche Cell Culture Facility. 1321N1-hP2X7 cells were grown in Dulbecco's Modified Eagle's Medium (DMEM) high glucose supplemented with 10% FBS and 250 μg/mL G418. HEK293-rP2X7 cells were grown in DMEM/F-12 supplemented with 10% FBS, 1 mM CaCl2, 2 mM MgCl2, 2 mM L-Glutamine and 500 μg/ml G418. Cells were split such that they never became >70% confluent.
# On the day prior to the experiment, 1321N1-hP2X7 or HEK293-rP2X7 cells were released into suspension with calcium-free PBS+Versene and washed by centrifugation with calcium-free PBS to remove the Versene. Cells were resuspended in growth medium at a density of 2.5×10^5 cells/mL and seeded into black walled, clear bottom 96 well plates (50,000 cells/well) approximately 18 hr prior to intracellular calcium flux experiments.
# On the day of the experiment, plates were washed with FLIPR buffer (calcium- and magnesium-free Hank's Balanced Salt Solution (HBSS) supplemented with 10 mM Hepes, 2.5 mM probenecid and 2 mM calcium chloride) using a BIO-TEK 96 channel plate washer and incubated with […] fluo-3 dye at 37° C. for one hr. The dye was then removed by plate washing and the cells were allowed to equilibrate for 20 min at room temperature with antagonist or vehicle (FLIPR buffer). Agonist (100 μM BzATP final concentration for hP2X7; 5 μM BzATP final concentration or rP2X7) was added online with the FLIPR and fluorescence measurements made at 1 sec intervals for 60 sec followed by 3 sec intervals for a further 4 min (5 min total). A final addition of 5 μM ionomycin was made and the maximal BzATP-evoked fluorescence normalized to the maximal ionomycin-evoked fluorescence.
row,pIC50,SMILES
1,7.56,"Cc1ccc(-c2ccn(CCO)n2)cc1NC(=O)C1=CNC(=O)C[C@H]1c1cccc(Cl)c1 (stereo in doubt) [Compound 114, 4-(3-Chloro-phenyl)-6-oxo-1,4,5,6-tetrahydro-pyridine-3-carboxylic acid {5-[1-(2-hydroxy-ethyl)-1H-pyrazol-3-yl]-2-methyl-phenyl}-amide]"
2,6.985,"Cc1ccc(-n2cccc2)cc1NC(=O)C1=CNC(=O)CC1c1cccc(F)c1 (centres unmarked) [Compound 1, 4-(3-Fluoro-phenyl)-6-oxo-1,4,5,6-tetrahydro-pyridine-3-carboxylic acid (2-methyl-5-pyrrol-1-yl-phenyl)-amide]"
3,7.735,"Cc1ccc(-c2cc(C)n(CCO)n2)cc1NC(=O)C1=CNC(=O)C[C@H]1c1ccc(F)cc1 [Compound 2, (S)-4-(4-Fluoro-phenyl)-6-oxo-1,4,5,6-tetrahydro-pyridine-3-carboxylic acid {5-[1-(2-hydroxy-ethyl)-5-methyl-1H-pyrazol-3-yl]-2-methyl-phenyl}-amide]"
4,6.21,"Cc1ccc(-c2nnn(C)n2)cc1NC(=O)C1=CNC(=O)C[C@H]1c1ccc(F)cc1 [Compound 3, (S)-4-(4-Fluoro-phenyl)-6-oxo-1,4,5,6-tetrahydro-pyridine-3-carboxylic acid [2-methyl-5-(2-methyl-2H-tetrazol-5-yl)-phenyl]-amide]"
5,7.715,"Cc1ccc(-c2cc(C)n(C)n2)cc1NC(=O)C1=CNC(=O)C[C@H]1c1ccc(F)cc1 [Compound 4, (S)-4-(4-Fluoro-phenyl)-6-oxo-1,4,5,6-tetrahydro-pyridine-3-carboxylic acid [5-(1,5-dimethyl-1H-pyrazol-3-yl)-2-methyl-phenyl]-amide]"
6,7.745,"Cc1ccc(-c2cc[nH]n2)cc1NC(=O)C1=CNC(=O)C[C@H]1c1ccc(F)cc1 [Compound 5, (S)-4-(4-Fluoro-phenyl)-6-oxo-1,4,5,6-tetrahydro-pyridine-3-carboxylic acid [2-methyl-5-(1H-pyrazol-3-yl)-phenyl]-amide]"
7,7.07,"Cc1ccc(-c2ccc(C)c(NC(=O)C3=CNC(=O)C[C@H]3c3ccc(F)cc3)c2)nc1 [Compound 6, (S)-4-(4-Fluoro-phenyl)-6-oxo-1,4,5,6-tetrahydro-pyridine-3-carboxylic acid [2-methyl-5-(5-methyl-pyridin-2-yl)-phenyl]-amide]"
8,7.643,"Cc1ccc(-c2cc(C)n(CC(C)O)n2)cc1NC(=O)C1=CNC(=O)C[C@H]1c1ccc(F)cc1 (stereo partly drawn) [Compound 7, (S)-4-(4-Fluoro-phenyl)-6-oxo-1,4,5,6-tetrahydro-pyridine-3-carboxylic acid {5-[1-(2-hydroxy-propyl)-5-methyl-1H-pyrazol-3-yl]-2-methyl-phenyl}-amide]"
9,6.367,"Cc1ccc(-c2ccnn2CC(C)C)cc1NC(=O)C1=CNC(=O)C[C@H]1c1ccc(F)cc1 [Compound 8, (S)-4-(4-Fluoro-phenyl)-6-oxo-1,4,5,6-tetrahydro-pyridine-3-carboxylic acid [5-(2-isobutyl-2H-pyrazol-3-yl)-2-methyl-phenyl]-amide]"
10,6.1767,"Cc1ccc(-c2nnnn2C)cc1NC(=O)C1=CNC(=O)C[C@H]1c1ccc(F)cc1 [Compound 9, (S)-4-(4-Fluoro-phenyl)-6-oxo-1,4,5,6-tetrahydro-pyridine-3-carboxylic acid [2-methyl-5-(1-methyl-1H-tetrazol-5-yl)-phenyl]-amide]"
11,6.653,"Cc1ccc(-c2ccc(C)c(NC(=O)C3=CNC(=O)C[C@H]3c3ccc(F)cc3)c2)cn1 [Compound 10, (S)-4-(4-Fluoro-phenyl)-6-oxo-1,4,5,6-tetrahydro-pyridine-3-carboxylic acid [2-methyl-5-(6-methyl-pyridin-3-yl)-phenyl]-amide]"
12,7.763,"Cc1ccc(-n2cccn2)cc1NC(=O)C1=CNC(=O)C[C@H]1c1ccc(F)cc1 [Compound 11, (S)-4-(4-Fluoro-phenyl)-6-oxo-1,4,5,6-tetrahydro-pyridine-3-carboxylic acid (2-methyl-5-pyrazol-1-yl-phenyl)-amide]"
13,6.913,"Cc1cc(-c2ccc(C)c(NC(=O)C3=CNC(=O)C[C@H]3c3ccc(F)cc3)c2)n(CCO)n1 [Compound 12, (S)-4-(4-Fluoro-phenyl)-6-oxo-1,4,5,6-tetrahydro-pyridine-3-carboyxlic acid {5-[2-(2-hydroxy-ethyl)-5-methyl-2H-pyrazol-3-yl]-2-methyl-phenyl}-amide]"
14,7.033,"Cc1ccc(-c2ccnn2C)cc1NC(=O)C1=CNC(=O)C[C@H]1c1ccc(F)cc1 [Compound 13, (S)-4-(4-Fluoro-phenyl)-6-oxo-1,4,5,6-tetrahydro-pyridine-3-carboxylic acid [2-methyl-5-(2-methyl-2H-pyrazol-3-yl)-phenyl]-amide]"
15,6.913,"CCc1cc(-c2ccc(C)c(NC(=O)C3=CNC(=O)C[C@H]3c3ccc(F)cc3)c2)[nH]n1 [Compound 14, (S)-4-(4-Fluoro-phenyl)-6-oxo-1,4,5,6-tetrahydro-pyridine-3-carboxylic acid [5-(5-ethyl-2H-pyrazol-3-yl)-2-methyl-phenyl]-amide]"
16,7.79,"Cc1ccc(-c2[nH]nc(C)c2C)cc1NC(=O)C1=CNC(=O)C[C@H]1c1ccc(F)cc1 [Compound 15, (S)-4-(4-Fluoro-phenyl)-6-oxo-1,4,5,6-tetrahydro-pyridine-3-carboxylic acid [5-(4,5-dimethyl-2H-pyrazol-3-yl)-2-methyl-phenyl]-amide]"
17,7.23,"Cc1ccc(-n2ncc(=O)[nH]c2=O)cc1NC(=O)C1=CNC(=O)C[C@H]1c1ccc(F)cc1 [Compound 16, (S)-4-(4-Fluoro-phenyl)-6-oxo-1,4,5,6-tetrahydro-pyridine-3-carboxylic acid [5-(3,5-dioxo-4,5-dihydro-3H-[1,2,4]triazin-2-yl)-2-methyl-phenyl]-amide]"
18,6.073,"CCc1cc(-c2cccc(NC(=O)C3=CNC(=O)C[C@H]3c3ccc(F)cc3)c2)n[nH]1 [Compound 17, (S)-4-(4-Fluoro-phenyl)-6-oxo-1,4,5,6-tetrahydro-pyridine-3-carboxylic acid [3-(5-ethyl-1H-pyrazol-3-yl)-phenyl]-amide]"
19,5.72,"Cc1cc(-c2cccc(NC(=O)C3=CNC(=O)C[C@H]3c3ccc(F)cc3)c2)nn1C [Compound 18, (S)-4-(4-Fluoro-phenyl)-6-oxo-1,4,5,6-tetrahydro-pyridine-3-carboxylic acid [3-(1,5-dimethyl-1H-pyrazol-3-yl)-phenyl]-amide]"
20,7.423,"Cc1ccc(-c2cc(C)n(C[C@@H](O)CO)n2)cc1NC(=O)C1=CNC(=O)C[C@H]1c1ccc(F)cc1 [Compound 19, (S)-4-(4-Fluoro-phenyl)-6-oxo-1,4,5,6-tetrahydro-pyridine-3-carboxylic acid {5-[1-((R)-2,3-dihydroxy-propyl)-5-methyl-1H-pyrazol-3-yl]-2-methyl-phenyl}-amide]"
21,5.31,"Cc1cc(-c2cccc(NC(=O)C3=CNC(=O)C[C@H]3c3ccc(F)cc3)c2)n(C)n1 [Compound 20, (S)-4-(4-Fluoro-phenyl)-6-oxo-1,4,5,6-tetrahydro-pyridine-3-carboxylic acid [3-(2,5-dimethyl-2H-pyrazol-3-yl)-phenyl]-amide]"
22,6.525,"Cc1cc(-c2ccc(C)c(NC(=O)C3=CNC(=O)C[C@H]3c3ccc(F)cc3)c2)n(C)n1 [Compound 21, (S)-4-(4-Fluoro-phenyl)-6-oxo-1,4,5,6-tetrahydro-pyridine-3-carboxylic acid [5-(2,5-dimethyl-2H-pyrazol-3-yl)-2-methyl-phenyl]-amide]"
23,7.75,"Cc1cc(-c2ccc(C)c(NC(=O)C3=CNC(=O)C[C@H]3c3cccc(F)c3)c2)n[nH]1 [Compound 22, (S)-4-(3-Fluoro-phenyl)-6-oxo-1,4,5,6-tetrahydro-pyridine-3-carboxylic acid [2-methyl-5-(5-methyl-1H-pyrazol-3-yl)-phenyl]-amide]"
